Patent publication US12559529B2, “NPY2 receptor agonists” (Boehringer Ingelheim International GmbH, priority 2019, dated 2026)
*1 amine or outer side, *2 acyl side, *3 side chain or, on linkers, in order; H or OH if unused. Where a SMILES comes first, the peptide text is derived from it. Side-chain parts run from the residue outwards. The star is where a group is joined. C18 diacid = O=C(O)CCCCCCCCCCCCCCCCC(=O)*; γGlu = O=C(O)[C@H](CCC(=O)[*:2])N[*:1]; Isovaleryl = CC(C)CC(=O)*; AEEA = NCCOCCOCC(=O)O

Experiments:
[1] = molecular target: T1, Human Neuropeptide Y2 Receptor (Homo sapiens, UniProt P49146); experiment: Radioligand binding competition assay (RLB); conditions: Table 3; human 125I-PYY (1-36) 0.02 nM, Y2 receptor membranes; read-out: Ki
T1 construct: purchased CHEMICON HTS066M
T1 sequence (P49146 1-381): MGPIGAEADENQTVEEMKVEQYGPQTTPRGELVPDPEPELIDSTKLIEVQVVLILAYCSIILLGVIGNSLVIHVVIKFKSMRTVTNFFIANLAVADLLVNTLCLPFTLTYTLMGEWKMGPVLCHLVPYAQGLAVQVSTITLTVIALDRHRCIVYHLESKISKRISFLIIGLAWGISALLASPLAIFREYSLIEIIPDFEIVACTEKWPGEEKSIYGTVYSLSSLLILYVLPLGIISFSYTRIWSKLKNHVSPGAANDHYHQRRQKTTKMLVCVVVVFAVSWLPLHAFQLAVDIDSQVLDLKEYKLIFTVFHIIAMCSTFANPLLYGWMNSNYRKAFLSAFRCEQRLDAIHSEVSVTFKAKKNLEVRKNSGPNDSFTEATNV
Outline: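 Competition binding at commercial human NPY Y2 membrane preparations, 0.5 μg protein per well, 2 h incubation at room temperature. Bound and free ligand were separated on GF/C filters and counted; IC50 was fitted by nonlinear regression.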

normal NMRI mice = experiment: Effect on acute food intake in normal NMRI mice; format: in vivo; conditions: male NMRI mice, 10 nmol/kg subcutaneously once
Outline: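 A single 10 nmol/kg s.c. peptide dose was given 1 h before lights-off to male NMRI mice fasted from 6 h before the night phase (n=7-8). Intake was recorded continuously by microchip-identified HM-2 feeding channels. Values are normalized to vehicle controls (50 mM phosphate buffer pH7 with 5% Mannitol).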

Row | Structure (SMILES) | Ki [1] | Acute Food Intake 24 h [% vehicle] (normal NMRI mice)
1 | CC(C)CC(=O)N[C@@H](C)C(=O)N1CCC[C@H]1C(=O)N[C@@H](CCC(=O)O)C(=O)N[C@@H](CCCCNC(=O)COCCOCCNC(=O)COCCOCCNC(=O)CC[C@H](NC(=O)CCCCCCCCCCCCCCCCC(=O)O)C(=O)O)C(=O)N1CCC[C@H]1C(=O)N[C@@H](CCC(=O)O)C(=O)N[C@@H](CCC(=O)O)C(=O)N[C@@H](CC(=O)O)C(=O)N[C@@H](C)C(=O)N[C@@H](CO)C(=O)N1CCC[C@H]1C(=O)N[C@@H](CCC(=O)O)C(=O)N[C@@H](CCC(=O)O)C(=O)N[C@H](C(=O)N[C@@H](CCC(N)=O)C(=O)N[C@@H](CCCNC(=N)N)C(=O)N[C@@H](Cc1ccc(O)cc1)C(=O)N[C@@H](Cc1ccc(O)cc1)C(=O)N[C@H](C(=O)N[C@@H](CCC(=O)O)C(=O)N[C@@H](CC(C)C)C(=O)N[C@@H](CCCNC(=N)N)C(=O)N[C@@H](Cc1c[nH]cn1)C(=O)N[C@@H](Cc1ccc(O)cc1)C(=O)N[C@@H](Cc1ccc(O)cc1)C(=O)N[C@@H](CC(N)=O)C(=O)N[C@@H](Cc1c[nH]c2ccccc12)C(=O)N[C@@H](CC(C)C)C(=O)N[C@H](C(=O)N[C@@H](CCCNC(=N)N)C(=O)N[C@@H](CCC(N)=O)C(=O)N[C@@H](CCCNC(=N)N)C(=O)N[C@@H](Cc1ccc(O)cc1)C(N)=O)[C@@H](C)O)C(C)C)C(C)C [Compound 133, N{alpha-4}-(3-methylbutanoyl)-N{epsilon-7}-[2-(2-{2-[2-(2-{2-[(4S)-4-carboxy-4-(17-carboxyheptadecanamido)butanamido]ethoxy}ethoxy)acetamido]ethoxy}ethoxy)acetamido]-[4A,7K,9E,17V,18Q,22V,23E,28Y,30W,31L]hPYY (4-36)] | 2.31 nM | 57 % vehicle
2 | CC(C)CC(=O)N[C@@H](C)C(=O)N1CCC[C@H]1C(=O)N[C@@H](CCC(=O)O)C(=O)N[C@@H](CCCCNC(=O)COCCOCCNC(=O)COCCOCCNC(=O)CC[C@H](NC(=O)CCCCCCCCCCCCCCCCC(=O)O)C(=O)O)C(=O)N1CCC[C@H]1C(=O)N[C@@H](CCC(=O)O)C(=O)N[C@@H](CCC(=O)O)C(=O)N[C@@H](CCC(=O)O)C(=O)N[C@@H](CO)C(=O)N[C@@H](CO)C(=O)N1CCC[C@H]1C(=O)N[C@@H](CCC(=O)O)C(=O)N[C@@H](CCC(=O)O)C(=O)N[C@@H](CC(C)C)C(=O)N[C@@H](CCC(N)=O)C(=O)N[C@@H](CCCNC(=N)N)C(=O)N[C@@H](Cc1ccc(O)cc1)C(=O)N[C@@H](Cc1ccc(O)cc1)C(=O)N[C@H](C(=O)N[C@@H](CO)C(=O)N[C@@H](CC(C)C)C(=O)N[C@@H](CCCNC(=N)N)C(=O)N[C@@H](Cc1c[nH]cn1)C(=O)N[C@@H](Cc1ccc(O)cc1)C(=O)N[C@@H](Cc1ccc(O)cc1)C(=O)N[C@@H](CC(N)=O)C(=O)N[C@@H](Cc1c[nH]c2ccccc12)C(=O)N[C@@H](CC(C)C)C(=O)N[C@H](C(=O)N[C@@H](CCCNC(=N)N)C(=O)N[C@@H](CCC(N)=O)C(=O)N[C@@H](CCCNC(=N)N)C(=O)N[C@@H](Cc1ccc(O)cc1)C(N)=O)[C@@H](C)O)C(C)C [Compound 139, N{alpha-4}-(3-methylbutanoyl)-N{epsilon-7}-[2-(2-{2-[2-(2-{2-[(4S)-4-carboxy-4-(17-carboxyheptadecanamido)butanamido]ethoxy}ethoxy)acetamido]ethoxy}ethoxy)acetamido]-[4A,7K,9E,11E,12S,18Q,22V,28Y,30W,31L]hPYY (4-36)] (Isovaleryl-APEK([AEEA-AEEA-γGlu-C18 diacid])PEEESSPEELQRYYVSLRHYYNWLTRQRY-NH2) | 3.83 nM | 74 % vehicle

Further lines, with some results ahead:

Row | Ki [1] | Structure (SMILES) | Acute Food Intake 24 h [% vehicle] (normal NMRI mice)
3 | 2.02 nM | CC(C)CC(=O)N[C@@H](C)C(=O)N1CCC[C@H]1C(=O)N[C@@H](CCC(=O)O)C(=O)N[C@@H](CCCCNC(=O)COCCOCCNC(=O)COCCOCCNC(=O)CC[C@H](NC(=O)CCCCCCCCCCCCCCCCC(=O)O)C(=O)O)C(=O)N1CCC[C@H]1C(=O)N[C@@H](CCC(=O)O)C(=O)N[C@@H](CCC(=O)O)C(=O)N[C@@H](CC(=O)O)C(=O)N[C@@H](C)C(=O)N[C@@H](CCC(=O)O)C(=O)N1CCC[C@H]1C(=O)N[C@@H](CCC(=O)O)C(=O)N[C@@H](CCC(=O)O)C(=O)N[C@@H](CC(C)C)C(=O)N[C@@H](CCC(N)=O)C(=O)N[C@@H](CCCCN)C(=O)N[C@@H](Cc1ccc(O)cc1)C(=O)N[C@@H](Cc1ccc(O)cc1)C(=O)N[C@H](C(=O)N[C@@H](CO)C(=O)N[C@@H](CC(C)C)C(=O)N[C@@H](CCCNC(=N)N)C(=O)N[C@@H](Cc1c[nH]cn1)C(=O)N[C@@H](Cc1ccc(O)cc1)C(=O)N[C@@H](Cc1ccc(O)cc1)C(=O)N[C@@H](CC(N)=O)C(=O)N[C@@H](Cc1c[nH]c2ccccc12)C(=O)N[C@@H](CC(C)C)C(=O)N[C@H](C(=O)N[C@@H](CCCNC(=N)N)C(=O)N[C@@H](CCC(N)=O)C(=O)N[C@@H](CCCNC(=N)N)C(=O)N[C@@H](Cc1ccc(O)cc1)C(N)=O)[C@@H](C)O)C(C)C [Compound 150, N{alpha-4}-(3-methylbutanoyl)-N{epsilon-7}-[2-(2-{2-[2-(2-{2-[(4S)-4-carboxy-4-(17-carboxyheptadecanamido)butanamido]ethoxy}ethoxy)acetamido]ethoxy}ethoxy)acetamido]-[4A,7K,9E,13E,18Q,19K,22V,28Y,30W,31L]hPYY (4-36)] | 67 % vehicle
4 | 1.43 nM | CC(C)CC(=O)N[C@@H](C)C(=O)N1CCC[C@H]1C(=O)N[C@@H](CCC(=O)O)C(=O)N[C@@H](CCCCNC(=O)COCCOCCNC(=O)COCCOCCNC(=O)CC[C@H](NC(=O)CCCCCCCCCCCCCCCCC(=O)O)C(=O)O)C(=O)N1CCC[C@H]1C(=O)N[C@@H](CCC(=O)O)C(=O)N[C@@H](C)C(=O)N[C@@H](CCC(=O)O)C(=O)N[C@@H](C)C(=O)N[C@@H](CO)C(=O)N1CCC[C@H]1C(=O)N[C@@H](CCC(=O)O)C(=O)N[C@@H](CCC(=O)O)C(=O)N[C@@H](CC(C)C)C(=O)N[C@@H](CCC(N)=O)C(=O)N[C@@H](CCCNC(=N)N)C(=O)N[C@@H](Cc1ccc(O)cc1)C(=O)N[C@@H](Cc1ccc(O)cc1)C(=O)N[C@H](C(=O)N[C@@H](CO)C(=O)N[C@@H](CC(C)C)C(=O)N[C@@H](CCCNC(=N)N)C(=O)N[C@@H](Cc1c[nH]cn1)C(=O)N[C@@H](Cc1ccc(O)cc1)C(=O)N[C@@H](Cc1ccc(O)cc1)C(=O)N[C@@H](CC(N)=O)C(=O)N[C@@H](Cc1c[nH]c2ccccc12)C(=O)N[C@@H](CC(C)C)C(=O)N[C@H](C(=O)N[C@@H](CCCNC(=N)N)C(=O)N[C@@H](CCC(N)=O)C(=O)N[C@@H](CCCNC(=N)N)C(=O)N[C@@H](Cc1ccc(O)cc1)C(N)=O)[C@@H](C)O)C(C)C [Compound 151, N{alpha-4}-(3-methylbutanoyl)-N{epsilon-7}-[2-(2-{2-[2-(2-{2-[(4S)-4-carboxy-4-(17-carboxyheptadecanamido)butanamido]ethoxy}ethoxy)acetamido]ethoxy}ethoxy)acetamido]-[4A,7K,9E,10A,11E,18Q,22V,28Y,30W,31L]hPYY (4-36)] | 45 % vehicle
5 | 0.96 nM | CC(C)CC(=O)N[C@@H](C)C(=O)N1CCC[C@H]1C(=O)N[C@@H](CCC(=O)O)C(=O)N[C@@H](CCCCNC(=O)COCCOCCNC(=O)COCCOCCNC(=O)CC[C@H](NC(=O)CCCCCCCCCCCCCCCCC(=O)O)C(=O)O)C(=O)N1CCC[C@H]1C(=O)N[C@@H](CCC(=O)O)C(=O)N[C@@H](CCC(=O)O)C(=O)N[C@@H](C)C(=O)N[C@@H](C)C(=O)N[C@@H](CO)C(=O)N1CCC[C@H]1C(=O)N[C@@H](CCC(=O)O)C(=O)N[C@@H](CCC(=O)O)C(=O)N[C@@H](CC(C)C)C(=O)N[C@@H](CCC(N)=O)C(=O)N[C@@H](CCCNC(=N)N)C(=O)N[C@@H](Cc1ccc(O)cc1)C(=O)N[C@@H](Cc1ccc(O)cc1)C(=O)N[C@H](C(=O)N[C@@H](C)C(=O)N[C@@H](CC(C)C)C(=O)N[C@@H](CCCNC(=N)N)C(=O)N[C@@H](Cc1c[nH]cn1)C(=O)N[C@@H](Cc1ccc(O)cc1)C(=O)N[C@@H](Cc1ccc(O)cc1)C(=O)N[C@@H](CC(N)=O)C(=O)N[C@@H](Cc1c[nH]c2ccccc12)C(=O)N[C@@H](CC(C)C)C(=O)N[C@H](C(=O)N[C@@H](CCCNC(=N)N)C(=O)N[C@@H](CCC(N)=O)C(=O)N[C@@H](CCCNC(=N)N)C(=O)N[C@@H](Cc1ccc(O)cc1)C(N)=O)[C@@H](C)O)C(C)C [Compound 163, N{alpha-4}-(3-methylbutanoyl)-N{epsilon-7}-[2-(2-{2-[2-(2-{2-[(4S)-4-carboxy-4-(17-carboxyheptadecanamido)butanamido]ethoxy}ethoxy)acetamido]ethoxy}ethoxy)acetamido]-[4A,7K,9E,11A,18Q,22V,23A,28Y,30W,31L]hPYY (4-36)] | 50 % vehicle
